Results reported in the supplement of paper PMC10307832.

Experiments:
Test in all cases: relative viability (nuclei count vs DMSO), 5 days (fraction); higher = more cells survive
Carfilzomib + Dasatinib = compound: CC(C)C[C@H](NC(=O)[C@H](CCc1ccccc1)NC(=O)CN1CCOCC1)C(=O)N[C@@H](Cc1ccccc1)C(=O)N[C@@H](CC(C)C)C(=O)[C@@]1(C)CO1 [Carfilzomib] + Cc1nc(Nc2ncc(C(=O)Nc3c(C)cccc3Cl)s2)cc(N2CCN(CCO)CC2)n1 [Dasatinib] (partner 0.075 µM)
Procedure, shortened: (§1)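 Medians of duplicate plates are given as relative viability. That measure is the nuclei count in treated wells divided by the count in vehicle wells. Counts were taken on 4× images of lung cancer cell lines in 1536-well plates, 5 days after pin-tool dosing the day after seeding with one drug alone or a fixed anchor-drug dose plus five library-drug doses (not always all listed) in √10 steps.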

Crizotinib + OSI-027 = compound: C[C@@H](Oc1cc(-c2cnn(C3CCNCC3)c2)cnc1N)c1c(Cl)ccc(F)c1Cl [Crizotinib] + COc1cccc2cc(-c3nc([C@H]4CC[C@H](C(=O)O)CC4)n4ncnc(N)c34)[nH]c12 [OSI-027] (partner 0.5 µM)
Procedure, shortened: as §1

Crizotinib + Pictilisib = compound: C[C@@H](Oc1cc(-c2cnn(C3CCNCC3)c2)cnc1N)c1c(Cl)ccc(F)c1Cl [Crizotinib] + CS(=O)(=O)N1CCN(Cc2cc3nc(-c4cccc5[nH]ncc45)nc(N4CCOCC4)c3s2)CC1 [Pictilisib] (partner 1 µM)
Procedure, shortened: as §1

Crizotinib + Vorinostat = compound: C[C@@H](Oc1cc(-c2cnn(C3CCNCC3)c2)cnc1N)c1c(Cl)ccc(F)c1Cl [Crizotinib] + O=C(CCCCCCC(=O)Nc1ccccc1)NO [Vorinostat] (partner 1 µM)
Procedure, shortened: as §1

Row | Cell Line | relative viability (Carfilzomib + Dasatinib; first compound 0.001 µM) | relative viability (Carfilzomib + Dasatinib; first compound 0.003162 µM) | relative viability (Carfilzomib + Dasatinib; first compound 0.01 µM) | relative viability (Carfilzomib + Dasatinib; first compound 0.03162 µM) | relative viability (Carfilzomib + Dasatinib; first compound 0.1 µM) | relative viability (Crizotinib + OSI-027; first compound 0.01 µM) | relative viability (Crizotinib + OSI-027; first compound 0.03162 µM) | relative viability (Crizotinib + OSI-027; first compound 0.1 µM) | relative viability (Crizotinib + OSI-027; first compound 0.3162 µM) | relative viability (Crizotinib + OSI-027; first compound 1 µM) | relative viability (Crizotinib + Pictilisib; first compound 0.01 µM) | relative viability (Crizotinib + Pictilisib; first compound 0.03162 µM) | relative viability (Crizotinib + Pictilisib; first compound 0.1 µM) | relative viability (Crizotinib + Pictilisib; first compound 0.3162 µM) | relative viability (Crizotinib + Pictilisib; first compound 1 µM) | relative viability (Crizotinib + Vorinostat; first compound 0.01 µM) | relative viability (Crizotinib + Vorinostat; first compound 0.03162 µM) | relative viability (Crizotinib + Vorinostat; first compound 0.1 µM) | relative viability (Crizotinib + Vorinostat; first compound 1 µM) | relative viability (Crizotinib + Vorinostat; first compound 0.3162 µM)
1 | PC-3 [JPC-3] | 0.914 | 0.972 | 0.996 | 0.597 | 0.428 | 0.786 | 0.802 | 0.76 | 0.683 | 0.745 | 0.687 | 0.804 | 0.722 | 0.705 | 0.709 | 0.687 | 0.903 | 1.16 | 0.71 | –
2 | PC-14 | 0.311 | 0.305 | 0.241 | 0.0289 | 0.0424 | 0.826 | 0.898 | 0.8 | 0.867 | 1.03 | 0.772 | 0.775 | 0.708 | 0.8 | – | 0.632 | 0.792 | 0.693 | 0.784 | 0.608
3 | RERF-LC-KJ | 0.792 | 0.82 | 0.867 | 0.388 | 0.184 | 0.518 | 0.619 | 0.521 | 0.542 | 0.612 | 0.502 | 0.628 | 0.476 | 0.561 | 0.621 | 0.695 | 0.708 | 0.709 | 0.773 | 0.566
4 | SK-LU-1 | 0.167 | 0.189 | 0.236 | 0.0906 | 0.117 | 0.36 | 0.342 | 0.331 | 0.324 | 0.353 | 0.613 | 0.709 | 0.557 | 0.686 | 0.567 | 0.73 | 0.727 | 0.71 | 0.761 | 0.801
5 | SK-MES-1 | 0.323 | 0.454 | 0.409 | 0.197 | 0.107 | 0.612 | 0.646 | 0.568 | 0.556 | 0.586 | 0.402 | 0.311 | 0.35 | 0.299 | 0.333 | 0.993 | 1.11 | 1.09 | 1.07 | 0.981
6 | SW 1573 | 0.653 | 0.764 | 0.372 | 0.0426 | 0.0643 | 0.538 | 0.609 | 0.563 | 0.59 | 0.587 | 0.424 | 0.525 | 0.558 | 0.459 | 0.52 | 0.824 | 0.947 | 0.729 | 0.671 | 0.55
7 | UMC-11 | 0.52 | 0.412 | 0.415 | 0.393 | 0.184 | 0.418 | 0.472 | 0.523 | 0.434 | 0.46 | 0.753 | 0.854 | 0.803 | 0.161 | 0.785 | 0.271 | 0.424 | 0.407 | 0.427 | 0.356
